Reference: ChEMBL document CHEMBL3751718, “Synthesis and biological evaluation of lipid-like 5-(2-hydroxyethyl)-4-methyl-1,3-thiazole derivatives as potential anticancer and antimicrobial agents” (Medchemcomm, 2015)
In brackets after ≈: the same amount, converted by molar mass. Activity calls are given as the source filed them. The rule behind the calls is not given here.

Assays:
Bacillus cereus [1] = assay: Antibacterial activity against Bacillus cereus MSCL 330 at 5 mg/ml after 24 hrs by agar dish diffusion method; type: functional; details: MSCL 330, 24 h, read-out: DIZ
Bacillus cereus [2] = assay: Bactericidal activity against Bacillus cereus MSCL 330 incubated for 24 hrs followed by colony transfer to agar plates for 24 hrs by colony counting based assay; type: functional; details: MSCL 330, 24 h, read-out: MBC99.9
Escherichia coli [3] = assay: Antibacterial activity against Escherichia coli MSCL 332 at 10 mg/ml after 24 hrs by agar dish diffusion method; type: functional; details: for zone of inhibition at 10000 µg/mL: MSCL 332, 24 h, read-out: DIZ
Proteus mirabilis [4] = assay: Antibacterial activity against Proteus mirabilis MSCL 590 at 10 mg/ml after 24 hrs by agar dish diffusion method; type: functional; details: for zone of inhibition at 10000 µg/mL: MSCL 590, 24 h, read-out: DIZ
Bacillus cereus [5] = assay: Antibacterial activity against Bacillus cereus MSCL 330 at 10 mg/ml after 24 hrs by agar dish diffusion method; type: functional; details: MSCL 330, 24 h, read-out: DIZ
Staphylococcus aureus [6] = assay: Antibacterial activity against Staphylococcus aureus MSCL 334 at 10 mg/ml after 24 hrs by agar dish diffusion method; type: functional; details: MSCL 334, 24 h, read-out: DIZ
Aspergillus niger [7] = assay: Antifungal activity against Aspergillus niger MSCL 324 at 5 mg/ml after 48 hrs by agar dish diffusion method; type: functional; details: for zone of inhibition at 5000 µg/mL: MSCL 324, 48 h, read-out: DIZ
MG-22A [8] = assay: Cytotoxicity against mouse MG-22A cells assessed as cell viability at 6.25 to 50 ug/ml after 72 hrs by MTT assay; type: functional; details: read-out: LC50 (the source's name)
Candida albicans [9] = assay: Fungicidal activity against Candida albicans MSCL 378 incubated for 24 hrs followed by colony transfer to agar plates for 24 hrs by colony counting based assay; type: functional; details: MSCL 378, 24 h, read-out: MFC99.9
[10] = Cytotoxicity against mouse NIH/3T3 cells assessed as cell viability at 6.25 to 50 ug/ml by neutral red-based assay; details: nih3t3
MG-22A [11] = assay: Induction of nitric oxide production in mouse MG-22A cells by Griess assay; type: functional; parameters: concentration or dose not given beside the values
Candida albicans [12] = assay: Antifungal activity against Candida albicans MSCL 378 at 5 mg/ml after 48 hrs by agar dish diffusion method; type: functional; details: MSCL 378, 48 h, read-out: DIZ
Candida albicans [13] = assay: Antifungal activity against Candida albicans MSCL 378 at 10 mg/ml after 48 hrs by agar dish diffusion method; type: functional; details: MSCL 378, 48 h, read-out: DIZ
Candida albicans [14] = assay: Antifungal activity against Candida albicans MSCL 378 after 24 hrs by broth dilution method; type: functional; details: MSCL 378, 24 h
Pseudomonas aeruginosa [15] = assay: Antibacterial activity against Pseudomonas aeruginosa MSCL 331 at 5 mg/ml after 24 hrs by agar dish diffusion method; type: functional
Escherichia coli [16] = assay: Antibacterial activity against Escherichia coli MSCL 332 at 5 mg/ml after 24 hrs by agar dish diffusion method; type: functional; details: for zone of inhibition at 5000 µg/mL: MSCL 332, 24 h, read-out: DIZ
Proteus mirabilis [17] = assay: Antibacterial activity against Proteus mirabilis MSCL 590 at 5 mg/ml after 24 hrs by agar dish diffusion method; type: functional; details: for zone of inhibition at 5000 µg/mL: MSCL 590, 24 h, read-out: DIZ
[18] = Cytotoxicity against human HT1080 cells assessed as cell viability at 6.25 to 50 ug/ml after 72 hrs by MTT assay; type: functional; details: HT-1080, 72 h, read-out: LC50 (the source's name)
Bacillus cereus [19] = assay: Antibacterial activity against Bacillus cereus MSCL 330 after 24 hrs by broth dilution method; type: functional; details: MSCL 330, 24 h
Pseudomonas aeruginosa [20] = assay: Antibacterial activity against Pseudomonas aeruginosa MSCL 331 at 10 mg/ml after 24 hrs by agar dish diffusion method; type: functional; details: for zone of inhibition at 10000 µg/mL: MSCL 331, 24 h, read-out: DIZ
Aspergillus niger [21] = assay: Fungicidal activity against Aspergillus niger MSCL 324 incubated for 24 hrs followed by colony transfer to agar plates for 24 hrs by colony counting based assay; type: functional; details: MSCL 324, 24 h, read-out: MFC99.9
MG-22A [22] = assay: Cytotoxicity against mouse MG-22A cells assessed as cell viability at 6.25 to 50 ug/ml by crystal violet-based assay; type: functional; details: read-out: LC50 (the source's name)
[23] = Cytotoxicity against human HT1080 cells assessed as cell viability at 6.25 to 50 ug/ml by crystal violet-based assay; type: functional; details: HT-1080, read-out: LC50 (the source's name)
HT-1080 = assay: Induction of nitric oxide production in human HT1080 cells by Griess assay; type: functional; parameters: concentration or dose not given beside the values
Aspergillus niger [24] = assay: Antifungal activity against Aspergillus niger MSCL 324 at 10 mg/ml after 48 hrs by agar dish diffusion method; type: functional; details: MSCL 324, 48 h, read-out: DIZ
Staphylococcus aureus [25] = assay: Antibacterial activity against Staphylococcus aureus MSCL 334 at 5 mg/ml after 24 hrs by agar dish diffusion method; type: functional; details: for zone of inhibition at 5000 µg/mL: MSCL 334, 24 h, read-out: DIZ
Aspergillus niger [26] = assay: Antifungal activity against Aspergillus niger MSCL 324 after 24 hrs by broth dilution method; type: functional; details: MSCL 324, 24 h
Escherichia coli [27] = assay: Bactericidal activity against Escherichia coli MSCL 332 incubated for 24 hrs followed by colony transfer to agar plates for 24 hrs by colony counting based assay; type: functional; details: MSCL 332, 24 h, read-out: MBC99.9
Staphylococcus aureus [28] = assay: Antibacterial activity against Staphylococcus aureus MSCL 334 after 24 hrs by broth dilution method; type: functional; details: MSCL 334, 24 h
Staphylococcus aureus [29] = assay: Bactericidal activity against Staphylococcus aureus MSCL 334 incubated for 24 hrs followed by colony transfer to agar plates for 24 hrs by colony counting based assay; type: functional; details: MSCL 334, 24 h, read-out: MBC99.9
Escherichia coli [30] = assay: Antibacterial activity against Escherichia coli MSCL 332 after 24 hrs by broth dilution method; type: functional; details: MSCL 332, 24 h

Row | SMILES | zone of inhibition at 5000 µg/mL (Bacillus cereus [1]) [mm] | MBC (Bacillus cereus [2]) [µg/mL] | zone of inhibition at 10000 µg/mL (Bacillus cereus [5]) [mm] | zone of inhibition at 10000 µg/mL (Staphylococcus aureus [6]) [mm] | zone of inhibition at 5000 µg/mL (Aspergillus niger [7]) [mm] | CC50 (MG-22A [8]) [µM] | MFC (Candida albicans [9]) [µg/mL] | LC50 [10] [µM] | Activity (MG-22A [11]) [%] | zone of inhibition at 5000 µg/mL (Candida albicans [12]) [mm] | zone of inhibition at 10000 µg/mL (Candida albicans [13]) [mm] | MIC (Candida albicans [14]) [µg/mL] | diameter of the inhibition zone (DIZ) (Pseudomonas aeruginosa [15]) | CC50 [18] [µM] | MIC (Bacillus cereus [19]) [µg/mL] | MFC (Aspergillus niger [21]) [µg/mL] | CC50 (MG-22A [22]) [µM] | CC50 [23] [µM] | Activity (HT-1080) [%] | zone of inhibition at 10000 µg/mL (Aspergillus niger [24]) [mm] | other results
1 | CCCCCCCCCCOCCc1scnc1C | 9 | > 256 | 10 | 10 | 11 | 45.9 | > 256 | 84.8 | 200 | 13 | 9 | > 256 | inactive | 63.6 | 2 (≈ 7.06 µM) | 64 (≈ 226 µM) | 38.8 | 60 | 400 | 11 | diameter of the inhibition zone (DIZ) (Escherichia coli [3]): inactive; diameter of the inhibition zone (DIZ) (Proteus mirabilis [4]): inactive; diameter of the inhibition zone (DIZ) (Escherichia coli [16]): inactive; diameter of the inhibition zone (DIZ) (Proteus mirabilis [17]): inactive; diameter of the inhibition zone (DIZ) (Pseudomonas aeruginosa [20]): inactive; diameter of the inhibition zone (DIZ) (Staphylococcus aureus [25]): inactive; MIC (Aspergillus niger [26]): 32 µg/mL (≈ 113 µM)
2 | CCCCCCCCCC[n+]1csc(CCOCCCCCCC)c1C.[I-] | 20 | 32 | 21 | 22 | 17 | 1.96 | 16 | 19.6 | 350 | 20 | 21 | 16 | – | 3.93 | 8 | 16 | 0.19 | 3.93 | 250 | 19 | MBC (Escherichia coli [27]): 64 µg/mL; MIC (Staphylococcus aureus [28]): 1 µg/mL; zone of inhibition at 10000 µg/mL (Escherichia coli [3]): 20 mm; zone of inhibition at 10000 µg/mL (Proteus mirabilis [4]): 12 mm; MBC (Staphylococcus aureus [29]): 4 µg/mL; MIC (Escherichia coli [30]): 32 µg/mL; zone of inhibition at 5000 µg/mL (Pseudomonas aeruginosa [15]; MSCL 331, 24 h, read-out: DIZ): 16 mm; zone of inhibition at 5000 µg/mL (Escherichia coli [16]): 15 mm; zone of inhibition at 5000 µg/mL (Proteus mirabilis [17]): 11 mm; zone of inhibition at 10000 µg/mL (Pseudomonas aeruginosa [20]): 20 mm; zone of inhibition at 5000 µg/mL (Staphylococcus aureus [25]): 21 mm; MIC (Aspergillus niger [26]): 16 µg/mL
3 | CCCCCCCCCCCOCCc1scnc1C | 10 | – | 11 | 13 | 9 | 53.8 | – | 47.1 | 100 | 14 | 15 | – | inactive | 50.5 | – | – | 47.1 | 53.8 | 100 | 15 | zone of inhibition at 10000 µg/mL (Escherichia coli [3]): 10 mm; zone of inhibition at 10000 µg/mL (Proteus mirabilis [4]): 10 mm; zone of inhibition at 5000 µg/mL (Escherichia coli [16]): 9 mm; zone of inhibition at 5000 µg/mL (Proteus mirabilis [17]): 8 mm; zone of inhibition at 10000 µg/mL (Pseudomonas aeruginosa [20]): 10 mm; zone of inhibition at 5000 µg/mL (Staphylococcus aureus [25]): 10 mm
4 | CCCCCCCOCCc1sc[n+](C)c1C.[I-] | 12 | > 256 | 13 | 21 | – | 18.2 | > 256 | 467.3 | 100 | 13 | 20 | 256 | inactive | 15.6 | > 256 | > 256 | 20.8 | 15.6 | 200 | 11 | MBC (Escherichia coli [27]): 256 µg/mL; MIC (Staphylococcus aureus [28]): 16 µg/mL; zone of inhibition at 10000 µg/mL (Escherichia coli [3]): 16 mm; diameter of the inhibition zone (DIZ) (Proteus mirabilis [4]): inactive; MBC (Staphylococcus aureus [29]): 64 µg/mL; diameter of the inhibition zone (DIZ) (Aspergillus niger [7]): inactive; MIC (Escherichia coli [30]): 256 µg/mL; zone of inhibition at 5000 µg/mL (Escherichia coli [16]): 11 mm; diameter of the inhibition zone (DIZ) (Proteus mirabilis [17]): inactive; diameter of the inhibition zone (DIZ) (Pseudomonas aeruginosa [20]): inactive; zone of inhibition at 5000 µg/mL (Staphylococcus aureus [25]): 20 mm; MIC (Aspergillus niger [26]): > 256 µg/mL
